Common to all, as to assay: relative viability (nuclei count vs DMSO), 5 days (fraction); higher = more cells survive
Compound in test [1]: CC[C@@H](C)CNCC(=O)N1CCC2=C([C@@H]1COC3=CC=CC(=C3)C)C=CS2 [RU-SKI 43] + O=C(CCCCCCC(=O)Nc1ccccc1)NO [Vorinostat] (partner 1 µM)
In short, it runs like this:
(§1)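 Values are medians from duplicate plates. Each reflects relative viability, defined as the nuclei count of treated wells over that of vehicle wells. Lung cancer cell lines in 1536-well plates were pin-tool dosed one day after seeding with one drug alone or with a fixed anchor-drug dose plus five library-drug doses (not always all listed) in √10 steps, then fixed, stained and imaged at 4× after 5 days.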

Compound in test [2]: CC[C@@H](C)CNCC(=O)N1CCC2=C([C@@H]1COC3=CC=CC(=C3)C)C=CS2 [RU-SKI 43] + COc1cc2c(Oc3ccc(NC(=O)C4(C(=O)Nc5ccc(F)cc5)CC4)cc3F)ccnc2cc1OCCCN1CCOCC1 [Foretinib] (partner 0.25 µM)
The method, boiled down:
as §1

Compound in test [3]: Cn1cc(-c2cnc3ccc4ccc(CS(=O)(=O)NCc5ccccn5)cc4c(=O)c3c2)cn1 [MK-8033] + C[C@]1(O)C[C@@H](c2nc(-c3ccc4ccc(-c5ccccc5)nc4c3)c3c(N)nccn32)C1 [Linsitinib] (partner 1 µM)
The method, boiled down: as §1

Compound in test [4]: CC[C@@H](C)CNCC(=O)N1CCC2=C([C@@H]1COC3=CC=CC(=C3)C)C=CS2 [RU-SKI 43] + CC(=O)Nc1cccc(-n2c(=O)n(C3CC3)c(=O)c3c(Nc4ccc(I)cc4F)n(C)c(=O)c(C)c32)c1 [Trametinib] (partner 0.02 µM)
The method, boiled down:
as §1

Consider UMC-11, for which the relative viability amounted to 0.386 in test [1] (first compound 0.1 µM); 0.328 in test [1] (first compound 0.3162 µM); 0.473 in test [1] (first compound 1 µM); 0.407 in test [1] (first compound 3.162 µM); 0.352 in test [1] (first compound 10 µM); 1.07 in test [2] (first compound 0.1 µM). The relative viability in test [2] (first compound 0.3162 µM) is 1.14; in test [2] (first compound 1 µM) it was 1.05; in test [2] (first compound 3.162 µM) it was 1.14; in test [2] (first compound 10 µM), 1.03; in test [3] (first compound 0.02 µM), 0.973; in test [3] (first compound 0.06325 µM) it was 0.739. Further, the relative viability is 0.974 in test [3] (first compound 0.2 µM); 0.969 in test [3] (first compound 0.6325 µM); 0.979 in test [3] (first compound 2 µM); 0.691 in test [4] (first compound 0.1 µM); 0.693 in test [4] (first compound 0.3162 µM); 0.742 in test [4] (first compound 1 µM). The relative viability in test [4] (first compound 3.162 µM) was found to be 0.745; in test [4] (first compound 10 µM), 0.401.

(Values after the supplement of paper PMC10307832.)
